According to article PMC4096222 (Journal of Medicinal Chemistry, 2014):

What was measured:
A/M2 S31N = A/M2 S31N (Influenza A virus, UniProt P0DOF5, S31N); format: cell-based, influenza A/Udorn/72; details: for A/M2 S31N inhibition by 100 μM for 2 min (mean ± SE): pH 5.5
A/PR/8/34 (A/H1N1) = format: cell-based, influenza A virus
A/M2 V27A = A/M2 V27A (Influenza A virus, UniProt P0DOF5, V27A); format: cell-based, influenza A/Udorn/72

**Q.** Which “A/M2 S31N inhibition by 100 μM for 2 min (mean ± SE)” value (A/M2 S31N) does the source give for `C1=CC2C3CNCC3C1C1CC21.Cl` (stereo not shown) [compound 4, 4-Azatetracyclo[5.3.2.0^2,6.0^8.10]dodec-11-ene Hydrochloride] here?
**A.** 0%

**Q.** `Cl.N=C(N)N1CC2C3C=CC(C4CC34)C2C1` (stereo not shown) [compound 5, 4-Amidino-4-azatetracyclo[5.3.2.0^2,6.0^8.10]dodec-11-ene Hydrochloride] was tested. Which “A/M2 S31N inhibition by 100 μM for 2 min (mean ± SE)” value (A/M2 S31N) did it give?
**A.** 0%

**Q.** For `C1=CC2C3CC3C1C1CN(C3CCNCC3)CC21.Cl` (stereo not shown) [compound 8, 4-(4-Piperidinyl)-4-azatetracyclo[5.3.2.0^2,6.0^8.10]dodec-11-ene Dihydrochloride], which “activity against A/PR/8/34 strain” value (A/PR/8/34 (A/H1N1)) is on record?
**A.** strong activity

**Q.** With `C1=CC2C1C1C=CC2C2CNCC12.Cl` (stereo not shown) [compound 11, 4-Azatetracyclo[5.4.2.0^2,6.0^8.11]trideca-9,12-diene Hydrochloride] as the compound, how does the “activity against A/PR/8/34 strain” value (A/PR/8/34 (A/H1N1)) read?
**A.** strong activity

**Q.** `Cl.N=C(N)N1CC2C3CCC(C4CCC43)C2C1` (stereo not shown) [compound 14, 4-Amidino-4-azatetracyclo[5.4.2.0^2,6.0^8.11]tridecane Hydrochloride] was tested. Which “activity against V27A M2 mutant channel” value (A/M2 V27A) did it give?
**A.** fair activity

**Q.** Which “inhibition of S31N mutant ion channel” value (A/M2 S31N) does the source give for `CC12CC34CNCC35CC1(C)C(C)(C5)C2(C)C4.Cl` (stereo not shown) [compound 18, 7,8,9,10-Tetramethyl-3-azapentacyclo[7.2.1.1^5,8.0^1,5.0^7,10]tridecane Hydrochloride] here?
**A.** lack of inhibitory potency

**Q.** And the “activity against A/PR/8/34 strain” value (A/PR/8/34 (A/H1N1))?
**A.** strong activity
